Measured values taken from patent publication US5023264A, “Rapamycin oximes” (American Home Products Corporation, priority 1990, dated 1991).
Values after ≈ are worked out from the molar mass of the structure shown.

Legend:
[1] = system: immunosuppressive activity; experiment: Standard pharmacological test procedures described supra (isomers of Example 1; overall immunosuppressive activity); design: species or system mouse; details: results not presented for the inactive isomer
Procedure: (§1) Immunosuppressive activity was evaluated in an in vitro standard pharmacological test procedure to measure lymphocyte proliferation (LAF) and in two in vivo standard pharmacological test procedures. The first in vivo procedure was a popliteal lymph node (PLN) test procedure which measured the effect of compounds of this invention on a mixed lymphocyte reaction and the second in vivo procedure evaluated the survival time of a pinch skin graft.
(§2) Briefly, cells from the thymus of normal BALB/c mice are cultured for 72 hours with PHA and IL-1 and pulsed with tritiated thymidine during the last six hours. […] Cells are harvested and incorporated; radioactivity is determined. Inhibition of lymphoproliferation is assessed in percent change in counts per minute from non-drug treated controls. The results are expressed by the following ratio: [formula]
A mixed lymphocyte reaction (MLR) occurs when lymphoid cells from genetically distinct animals are combined in tissue culture. Each stimulates the other to undergo blast transformation which results in increased DNA synthesis that can be quantified by the incorporation of tritiated thymidine. […] On Day 3 and Day 4, tritiated thymidine is given i.p., b.i.d. On Day 5, the hind popliteal lymph nodes are removed and dissolved, and radioactivity counted. […] Percent suppression is calculated using the non-drug treated animals as allogenic control. […]

[2] = system: thymocyte (lymphocyte) proliferation; experiment: Comitogen-induced thymocyte proliferation procedure (LAF); assay type: cell-based; details: in vitro, thymus cells of BALB/c mice, PHA and IL-1, 72 hours; ratio calculated as described (rapamycin 1.0)
Procedure: as §1, §2
(§3) *Calculation of ratios was described supra.
(§4) Transplanted pinch skin grafts are typically rejected within 6-7 days without the use of an immunosuppressive agent. […] (see, I. Roitt et al. Immunology, C. V. Moseby Co. 1989, p 12.8-12.11).

Candida albicans 3669 = experiment: Antifungal plate test, MIC, strain 3669; assay type: cell-based; details: plate disk test
Procedure: (§5) The following represents the typical procedure used. Compound to be tested was placed on sterile dried 1/4" plate disks, and allowed to dry. Agar plates were seeded with fungi and allowed to solidify. The impregnated disks were placed on the seeded Agar surface and incubated for the time required for the particular culture. Results are expressed in MIC (μg/ml) to inhibit growth.

[3] = system: Candida albicans ATCC 38247; experiment: Antifungal plate test, MIC, strain ATCC 38247; assay type: cell-based; details: plate disk test
Procedure: as §5

[4] = system: Candida albicans ATCC 38246; experiment: Antifungal plate test, MIC, strain ATCC 38246; assay type: cell-based; details: plate disk test
Procedure: as §5

[5] = system: mixed lymphocyte reaction in popliteal lymph node (host vs. graft); experiment: Popliteal lymph node (PLN) test procedure, in vivo mixed lymphocyte reaction; design: species or system mouse (BALB/c donors, C3H recipients); details: for PLN (ratio): p.o. daily Day 0 to Day 4, ratio calculated as described (rapamycin 1.0)
Procedure: as §1
A mixed lymphocyte reaction (MLR) occurs when lymphoid cells from genetically distinct animals are combined in tissue culture. Each stimulates the other to undergo blast transformation which results in increased DNA synthesis that can be quantified by the incorporation of tritiated thymidine. Since stimulating a MLR is a function of disparity at Major Histocompatibility antigens, an in vivo popliteal lymph node (PLN) test procedure closely correlates to host vs. graft disease. Briefly, irradiated spleen cells from BALB/c donors are injected into the right hind foot pad of recipient C3H mice. The drug is given daily, p.o. from Day 0 to Day 4. On Day 3 and Day 4, tritiated thymidine is given i.p., b.i.d. On Day 5, the hind popliteal lymph nodes are removed and dissolved, and radioactivity counted. The corresponding left PLN serves as the control for the PLN from the injected hind foot. Percent suppression is calculated using the non-drug treated animals as allogenic control. […] Results are expressed by the following ratio: [formula]
as §3, §4

[6] = system: Candida albicans ATCC 10231; experiment: Antifungal plate test, MIC, strain ATCC 10231; assay type: cell-based; details: plate disk test
Procedure: as §5

[7] = system: Candida albicans ATCC 38248; experiment: Antifungal plate test, MIC, strain ATCC 38248; assay type: cell-based; details: plate disk test
Procedure: as §5

[8] = system: pinch skin graft rejection; experiment: Survival time of pinch skin graft; assay type: in vivo, mouse (male DBA/2 donors, male BALB/c recipients); details: for Skin Graft survival (days + SD): intraperitoneally, mean graft survival time ± S.D.
Procedure: as §1
The second in vivo test procedure is designed to determine the survival time of pinch skin graft from male DBA/2 donors transplanted to male BALB/c recipients. The method is adapted from Billingham R. E. and Medawar P. B., J. Exp. Biol. 28:385-(402), 1951. Briefly, a pinch skin graft from the donor is grafted on the dorsum of the recipient as a homograft, and an autograft is used as control in the same region. […] Untreated recipients serve as rejection control. The graft is monitored daily and observations are recorded until the graft becomes dry and forms a blackened scab. This is considered as the rejection day. The mean graft survival time (number of days±S.D.) of the drug treatment group is compared with the control group.
as §4

transplant rejection = details: cited from earlier work
IGE-like antibodies = details: in vivo; cited from earlier work
Candida albicans = details: particularly against Candida albicans, in vitro and in vivo; cited from earlier work
[9] = system: experimental allergic encephalomyelitis, a model for multiple sclerosis; details: cited from earlier work

Compound | LAF (ratio) [2] | MIC (Candida albicans 3669) [mg/L] | MIC [3] [mg/L] | MIC [4] [mg/L] | MIC [6] [mg/L] | MIC [7] [mg/L] | Skin Graft survival (days + SD) [8] [days] | Immunosuppressive effect / inhibition of transplant rejection (transplant rejection) | further results
CO[C@H]1C[C@@H]2CC[C@@H](C)[C@@](O)(O2)C(=O)C(=O)N2CCCC[C@H]2C(=O)O[C@H]([C@H](C)C[C@@H]2CC[C@@H](O)[C@H](OC)C2)CC(=O)[C@H](C)/C=C(\C)[C@@H](O)[C@@H](OC)C(=NO)[C@H](C)C[C@H](C)/C=C/C=C/C=C/1C (single isomer, unassigned) [isomerically pure mono-oxime, Rapamycin-27-oxime] |  |  |  |  |  |  |  |  | Biological activity of the isomers of Example 1 [1]: biologically inactive
CO[C@H]1C[C@@H]2CC[C@@H](C)[C@@](O)(O2)C(=O)C(=O)N2CCCC[C@H]2C(=O)O[C@H]([C@H](C)C[C@@H]2CC[C@@H](O)[C@H](OC)C2)CC(=O)[C@H](C)/C=C(\C)[C@@H](O)[C@@H](OC)C(=NOCc2ccccc2)[C@H](C)C[C@H](C)/C=C/C=C/C=C/1C [Example 2, Rapamycin-O-benzyl-27-oxime] | 0.87 | > 0.4 | > 0.4 | > 0.4 | > 0.4 | > 0.4 | 9.3 ± 1.4 |  | PLN (ratio) [5]: 1.39
CON=C1[C@H](C)C[C@H](C)/C=C/C=C/C=C(\C)[C@@H](OC)C[C@@H]2CC[C@@H](C)[C@@](O)(O2)C(=O)C(=O)N2CCCC[C@H]2C(=O)O[C@H]([C@H](C)C[C@@H]2CC[C@@H](O)[C@H](OC)C2)CC(=O)[C@H](C)/C=C(\C)[C@@H](O)[C@H]1OC [Example 3, Rapamycin-O-methyl-27-oxime] | 0.007 | 0.2 (≈ 0.212 µM) | 0.2 (≈ 0.212 µM) | 0.05 (≈ 0.053 µM) | 0.2 (≈ 0.212 µM) | 0.05 (≈ 0.053 µM) | 9.5 ± 1.4 |  | 
C=CC[C@@H]1/C=C(\C)C[C@H](C)C[C@H](OC)[C@H]2O[C@@](O)(C(=O)C(=O)N3CCCC[C@H]3C(=O)O[C@H](/C(C)=C/[C@@H]3CC[C@@H](O)[C@H](OC)C3)[C@H](C)[C@@H](O)CC1=O)[C@H](C)C[C@@H]2OC [FK-506] |  |  |  |  |  |  |  | effective as immunosuppressive agents | 
CO[C@H]1C[C@@H]2CC[C@@H](C)[C@@](O)(O2)C(=O)C(=O)N2CCCC[C@H]2C(=O)O[C@H]([C@H](C)C[C@@H]2CC[C@@H](O)[C@H](OC)C2)CC(=O)[C@H](C)/C=C(\C)[C@@H](O)[C@@H](OC)C(=O)[C@H](C)C[C@H](C)/C=C/C=C/C=C/1C [Rapamycin] |  |  |  |  |  |  | 12.0 ± 1.7 | effective in inhibiting transplant rejection | Inhibition of formation of IGE-like antibodies (IGE-like antibodies): effectively inhibited the formation of IGE-like antibodies; Antifungal activity (Candida albicans): antifungal activity, particularly against Candida albicans, both in vitro and in vivo; Effect in experimental allergic encephalomyelitis model [9]: effective in the experimental allergic encephalomyelitis model
Rapamycin-27-oxime [Example 1] | 0.25 | 0.2 | 0.05 | 0.2 | 0.05 | 0.1 | 10.0 ± 1.6 |  | Biological activity of the isomers of Example 1 [1]: active in the assays described supra; T cell proliferation in the PLN test procedure (in words) ([5]; from negative PLN ratio): may cause T cell proliferation in the PLN test procedure; PLN (ratio) [5]: -1.40; Skin graft survival time (in words) ([8]; compared with grafts without immunosuppressive agent, rejected within 6-7 days): increased survival time observed in the skin graft test procedure
cyclosporin A |  |  |  |  |  |  |  | effective as immunosuppressive agents | 
